According to ChEMBL document CHEMBL5260810, “Inhibition of bromodomain-containing protein 9 for the prevention of epigenetically-defined drug resistance” (Bioorg Med Chem Lett, 2017):

How the values were obtained:
[1] = Cytotoxicity against human U-87 MG cells measured after 8 days; assay type: functional, cell-based, U-87MG ATCC; conditions: 192 h
[2] = Cytotoxicity against human Mel 928 cells measured after 8 days; assay type: functional, cell-based; conditions: Mel 928, 192 h
[3] = Cytotoxicity against human OCI-M1 cells measured after 8 days; assay type: functional, cell-based; conditions: OCI-M1, 192 h
L-363 = test: Cytotoxicity against human L-363 cells measured after 8 days; assay type: functional, cell-based; conditions: L-363, 192 h
[4] = Cytotoxicity against human HCC1576 cells measured after 8 days; assay type: functional, cell-based; conditions: HCC1576, 192 h
G-361 = test: Cytotoxicity against human G-361 cells measured after 8 days; assay type: functional, cell-based; conditions: G-361, 192 h
[5] = Cytotoxicity against mouse AB22 cells measured after 8 days; assay type: functional, cell-based; conditions: AB22, 192 h
[6] = Cytotoxicity against human COV362 cells measured after 8 days; assay type: functional, cell-based; conditions: COV362, 192 h
A2058 = test: Cytotoxicity against human A2058 cells measured after 8 days; assay type: functional, cell-based; conditions: A2058, 192 h
[7] = Cytotoxicity against human PE/CA-PJ15 cells measured after 8 days; assay type: functional, cell-based; conditions: PE/CA-PJ15, 192 h
Detroit 562 = test: Cytotoxicity against human Detroit 562 cells measured after 8 days; assay type: functional, cell-based; conditions: Detroit 562, 192 h
SU.86.86 = test: Cytotoxicity against human SU-86-86 cells measured after 8 days; assay type: functional, cell-based; conditions: SU.86.86, 192 h
COR-L88 = test: Cytotoxicity against human COR-L88 cells measured after 8 days; assay type: functional, cell-based; conditions: COR-L88, 192 h
[8] = Cytotoxicity against human HEC-151 cells measured after 8 days; assay type: functional, cell-based; conditions: HEC-151, 192 h
S-117 = test: Cytotoxicity against human S-117 cells measured after 8 days; assay type: functional, cell-based; conditions: S-117, 192 h
HGC-27 = test: Cytotoxicity against human HGC-27 cells measured after 8 days; assay type: functional, cell-based; conditions: HGC-27, 192 h
PEO1 = test: Cytotoxicity against human PEO1 cells measured after 8 days; assay type: functional, cell-based; conditions: PEO1, 192 h
[9] = Cytotoxicity against human OVCA 420 cells measured after 8 days; assay type: functional, cell-based; conditions: OVCA 420, 192 h
OVCAR-8 = test: Cytotoxicity against human OVCAR-8 cells measured after 8 days; assay type: functional, cell-based; conditions: OVCAR-8, 192 h
Renca = test: Cytotoxicity against mouse Renca cells measured after 8 days; assay type: functional, cell-based; conditions: 192 h
KU812 cell line = test: Cytotoxicity against human KU812 cell line measured after 8 days; assay type: functional, cell-based; conditions: KU812, 192 h
[10] = Cytotoxicity against human KR7251 cells measured after 8 days; assay type: functional, cell-based; conditions: KR7251, 192 h
[11] = Cytotoxicity against mouse 66cl-4 cells measured after 8 days; assay type: functional, cell-based; conditions: 66cl-4, 192 h
CAL-54 = test: Cytotoxicity against human CAL-54 cells measured after 8 days; assay type: functional, cell-based; conditions: CAL-54, 192 h
[12] = Cytotoxicity against human NCE-G 84 cells measured after 8 days; assay type: functional, cell-based; conditions: NCE-G 84, 192 h
[13] = Cytotoxicity against mouse AE17 cells measured after 8 days; assay type: functional, cell-based; conditions: AE17, 192 h
[14] = Cytotoxicity against human KHM-5M cells measured after 8 days; assay type: functional, cell-based; conditions: 192 h
LS174T = test: Cytotoxicity against human LS174T cells measured after 8 days; assay type: functional, cell-based; conditions: 192 h
OE19 = test: Cytotoxicity against human OE19 cells measured after 8 days; assay type: functional, cell-based; conditions: OE19, 192 h
PaTu 8988t = test: Cytotoxicity against human PaTu 8988t cells measured after 8 days; assay type: functional, cell-based; conditions: 192 h
[15] = Cytotoxicity against human JJ012 cells measured after 8 days; assay type: functional, cell-based; conditions: JJ012, 192 h
SK-MEL3 = test: Cytotoxicity against human SK-MEL3 cells measured after 8 days; assay type: functional, cell-based; conditions: SK-MEL3, 192 h
[16] = Cytotoxicity against human HCC597 cells measured after 8 days; assay type: functional, cell-based; conditions: HCC597, 192 h
BT-474 = test: Cytotoxicity against human BT-474 cells measured after 8 days; assay type: functional, cell-based; conditions: BT-474, 192 h
MC-38 = test: Cytotoxicity against mouse MC38 ovalbumin cells measured after 8 days; assay type: functional, cell-based; conditions: MC-38, 192 h
NCI-H889 = test: Cytotoxicity against human NCI-H889 cells measured after 8 days; assay type: functional, cell-based; conditions: NCI-H889, 192 h
Homo sapiens = organism: Homo sapiens; test: Inhibition of human N muscle type receptor at 10 uM relative to control
[17] = Cytotoxicity against human ASH-3 cells measured after 8 days; assay type: functional, cell-based; conditions: ASH-3, 192 h
[18] = Cytotoxicity against human GOTO.P3 cells measured after 8 days; assay type: functional, cell-based; conditions: GOTO.P3, 192 h
SNU-398 = test: Cytotoxicity against human SNU-398 cells measured after 8 days; assay type: functional, cell-based; conditions: SNU-398, 192 h
ME-180 = test: Cytotoxicity against human ME-180 cells measured after 8 days; assay type: functional, cell-based; conditions: ME-180, 192 h
C2BBe1 = test: Cytotoxicity against human C2BBe1 cells measured after 8 days; assay type: functional, cell-based; conditions: C2BBe1, 192 h
[19] = Cytotoxicity against human SBC-7 cells measured after 8 days; assay type: functional, cell-based; conditions: SBC-7, 192 h
[20] = Cytotoxicity against human HEC-265 cells measured after 8 days; assay type: functional, cell-based; conditions: HEC-265, 192 h
[21] = Cytotoxicity against human KPR3070 cells measured after 8 days; assay type: functional, cell-based; conditions: KPR3070, 192 h
[22] = Cytotoxicity against human COLO 858 cells measured after 8 days; assay type: functional, cell-based; conditions: COLO 858, 192 h
[23] = Cytotoxicity against human UM-UC-1 cells measured after 8 days; assay type: functional, cell-based; conditions: UM-UC-1, 192 h
RVH-421 = test: Cytotoxicity against human RVH-421 cells measured after 8 days; assay type: functional, cell-based; conditions: RVH-421, 192 h
[24] = Cytotoxicity against human RKOE6 cells measured after 8 days; assay type: functional, cell-based; conditions: RKOE6, 192 h
[25] = Cytotoxicity against human HEC-108 cells measured after 8 days; assay type: functional, cell-based; conditions: HEC-108, 192 h
[26] = Cytotoxicity against human HCC1263 cells measured after 8 days; assay type: functional, cell-based; conditions: HCC1263, 192 h
[27] = Cytotoxicity against human OE21 cells measured after 8 days; assay type: functional, cell-based; conditions: OE21, 192 h
[28] = Cytotoxicity against human TYK-nu.CP-r cells measured after 8 days; assay type: functional, cell-based; conditions: 192 h
[29] = Cytotoxicity against human TCC-Pan2 cells measured after 8 days; assay type: functional, cell-based; conditions: TCC-Pan2, 192 h
KINGS-1 = test: Cytotoxicity against human KINGS-1 cells measured after 8 days; assay type: functional, cell-based; conditions: KINGS-1, 192 h
[30] = Cytotoxicity against human Panc 02.03 cells measured after 8 days; assay type: functional, cell-based; conditions: Panc 02.03, 192 h
SNU-387 = test: Cytotoxicity against human SNU-387 cells measured after 8 days; assay type: functional, cell-based; conditions: SNU-387, 192 h
SET-2 = test: Cytotoxicity against human SET2 cells measured after 8 days; assay type: functional, cell-based; conditions: SET-2, 192 h
[31] = Cytotoxicity against human SNU-484 cells measured after 8 days; assay type: functional, cell-based; conditions: SNU-484, 192 h
SK-N-DZ = test: Cytotoxicity against human SK-N-DZ cells measured after 8 days; assay type: functional, cell-based; conditions: 192 h
[32] = Cytotoxicity against human KMS-34 cells measured after 8 days; assay type: functional, cell-based; conditions: KMS-34, 192 h

Compound: C/C=C/Cn1cc(-c2ccc(C(C)(C)O)cc2OC)c2cc[nH]c2c1=O
- IC50 [1]: 20 µM
- IC50 [2]: 20 µM
- IC50 [3]: 10.7 µM
- IC50 (L-363): 20 µM
- IC50 [4]: 20 µM
- IC50 (G-361): 20 µM
- IC50 [5]: 20 µM
- IC50 [6]: 20 µM
- IC50 (A2058): 20 µM
- IC50 [7]: 20 µM
- IC50 (Detroit 562): 20 µM
- IC50 (SU.86.86): 20 µM
- IC50 (COR-L88): 20 µM
- IC50 [8]: 20 µM
- IC50 (S-117): 20 µM
- IC50 (HGC-27): 14.4 µM
- IC50 (PEO1): 20 µM
- IC50 [9]: 20 µM
- IC50 (OVCAR-8): 20 µM
- IC50 (Renca): 20 µM
- IC50 (KU812 cell line): 20 µM
- IC50 [10]: 20 µM
- IC50 [11]: 20 µM
- IC50 (CAL-54): 20 µM
- IC50 [12]: 20 µM
- IC50 [13]: 20 µM
- IC50 [14]: 20 µM
- IC50 (LS174T): 20 µM
- IC50 (OE19): 20 µM
- IC50 (PaTu 8988t): 20 µM
- IC50 [15]: 20 µM
- IC50 (SK-MEL3): 20 µM
- IC50 [16]: 20 µM
- IC50 (BT-474): 20 µM
- IC50 (MC-38): 20 µM
- IC50 (NCI-H889): 20 µM
- inhibition (Homo sapiens): -7%
- IC50 [17]: 20 µM
- IC50 [18]: 20 µM
- IC50 (SNU-398): 20 µM
- IC50 (ME-180): 20 µM
- IC50 (C2BBe1): 20 µM
- IC50 [19]: 20 µM
- IC50 [20]: 20 µM
- IC50 [21]: 20 µM
- IC50 [22]: 20 µM
- IC50 [23]: 20 µM
- IC50 (RVH-421): 20 µM
- IC50 [24]: 20 µM
- IC50 [25]: 20 µM
- IC50 [26]: 20 µM
- IC50 [27]: 20 µM
- IC50 [28]: 20 µM
- IC50 [29]: 20 µM
- IC50 (KINGS-1): 20 µM
- IC50 [30]: 20 µM
- IC50 (SNU-387): 20 µM
- IC50 (SET-2): 20 µM
- IC50 [31]: 20 µM
- IC50 (SK-N-DZ): 18.6 µM
- IC50 [32]: 20 µM

Compound: C/C=C/Cn1cc(-c2ccc(C(=O)N3CCOCC3)cc2)c2cc[nH]c2c1=O
- IC50 [1]: 20 µM
- IC50 [2]: 20 µM
- IC50 [3]: 11.6 µM
- IC50 (L-363): 10.4 µM
- IC50 [4]: 20 µM
- IC50 (G-361): 20 µM
- IC50 [5]: 20 µM
- IC50 [6]: 20 µM
- IC50 (A2058): 20 µM
- IC50 [7]: 20 µM
- IC50 (Detroit 562): 20 µM
- IC50 (SU.86.86): 20 µM
- IC50 (COR-L88): 20 µM
- IC50 [8]: 20 µM
- IC50 (S-117): 20 µM
- IC50 (HGC-27): 16.9 µM
- IC50 (PEO1): 20 µM
- IC50 [9]: 20 µM
- IC50 (OVCAR-8): 20 µM
- IC50 (Renca): 20 µM
- IC50 (KU812 cell line): 20 µM
- IC50 [10]: 20 µM
- IC50 [11]: 20 µM
- IC50 (CAL-54): 20 µM
- IC50 [12]: 20 µM
- IC50 [13]: 18.1 µM
- IC50 [14]: 20 µM
- IC50 (LS174T): 20 µM
- IC50 (OE19): 20 µM
- IC50 (PaTu 8988t): 20 µM
- IC50 [15]: 20 µM
- IC50 (SK-MEL3): 20 µM
- IC50 [16]: 20 µM
- IC50 (BT-474): 20 µM
- IC50 (MC-38): 16.7 µM
- IC50 (NCI-H889): 20 µM
- inhibition (Homo sapiens): -1%
- IC50 [17]: 20 µM
- IC50 [18]: 20 µM
- IC50 (SNU-398): 20 µM
- IC50 (ME-180): 20 µM
- IC50 (C2BBe1): 20 µM
- IC50 [19]: 20 µM
- IC50 [20]: 20 µM
- IC50 [21]: 20 µM
- IC50 [22]: 20 µM
- IC50 [23]: 20 µM
- IC50 (RVH-421): 20 µM
- IC50 [24]: 20 µM
- IC50 [25]: 20 µM
- IC50 [26]: 20 µM
- IC50 [27]: 20 µM
- IC50 [28]: 20 µM
- IC50 [29]: 20 µM
- IC50 (KINGS-1): 20 µM
- IC50 [30]: 20 µM
- IC50 (SNU-387): 20 µM
- IC50 (SET-2): 11.1 µM
- IC50 [31]: 20 µM
- IC50 (SK-N-DZ): 20 µM
- IC50 [32]: 15.3 µM
